Reference: patent US10023536B2, “Suprametallogels and uses thereof” (Massachusetts Institute of Technology, priority 2014, dated 2018)

Tested on: HeLa cells
Experiment: Cytotoxicity of the gel components against HeLa cells (MILLIQ water as control)
Format: cell-based
Conditions: components of the gel tested separately
Protocol: FIG. 27: cytotoxicities of (1) a gel formed from C-2 and Fe^2+ (“gel”), (2) PEG, and (3) Fe^2+ (“Fe”) against HeLa cells. MILLIQ water (“milliQ”) used as a control.
Because C-2 forms gels with Fe^2+ salts, which are biocompatible, these gels may have applications as therapeutic devices. First, the cytotoxicity of these gels was tested on HeLa cells to determine the effect of the components of the gels on cell viability. Due to the difficulty in assessing the toxicity of gel materials, the components of the gels were tested separately.

iron
cytotoxicity compared to MILLIQ water: little cytotoxicity
